ChEMBL document CHEMBL1127180, “Synthesis and mechanistic studies of a tetrazole-tethered cephalosporin-quinolone hybrid” (1993)
≈ marks a conversion by molar mass, not a printed value.

Experiments:
Format in all cases: functional
Escherichia coli [1] = assay: Tested for in vitro antibacterial activity against Escherichia coli 257
Enterobacter cloacae [2] = assay: Tested for in vitro antibacterial activity against Enterobacter cloacae P99
Streptococcus pneumoniae [3] = assay: Tested for in vitro antibacterial activity against Streptococcus pneumoniae 6301
Pseudomonas aeruginosa [4] = assay: Tested for in vitro antibacterial activity against Pseudomonas aeruginosa 5712
Staphylococcus aureus [5] = assay: Tested for in vitro antibacterial activity against Staphylococcus aureus Smith
Escherichia coli [6] = assay: Tested for in vitro antibacterial activity against Escherichia coli TEM-1
Citrobacter freundii [7] = assay: Tested for in vitro antibacterial activity against Citrobacter freundii BS-16
Klebsiella pneumoniae [8] = assay: Tested for in vitro antibacterial activity against Klebsiella pneumoniae A
Pseudomonas aeruginosa [9] = assay: Tested for in vitro antibacterial activity against Pseudomonas aeruginosa 18SH
Streptococcus pyogenes [10] = assay: Tested for in vitro antibacterial activity against Streptococcus pyogenes 4
Staphylococcus aureus [11] = assay: Tested for in vitro antibacterial activity against Staphylococcus aureus 753
Staphylococcus aureus [12] = assay: Tested for in vitro antibacterial activity against Staphylococcus aureus 67
Proteus vulgaris [13] = assay: Tested for in vitro antibacterial activity against Proteus vulgaris ATCC 6380
Streptococcus pneumoniae [14] = assay: Tested for in vitro antibacterial activity against Streptococcus pneumoniae 6301; inactive
Klebsiella pneumoniae [15] = assay: Tested for in vitro antibacterial activity against Klebsiella pneumoniae A; inactive
Pseudomonas aeruginosa [16] = assay: Tested for in vitro antibacterial activity against Pseudomonas aeruginosa 5712; inactive
Escherichia coli [17] = assay: Tested for in vitro antibacterial activity against Escherichia coli 257; inactive
Enterobacter cloacae [18] = assay: Tested for in vitro antibacterial activity against Enterobacter cloacae P99; inactive
Citrobacter freundii [19] = assay: Tested for in vitro antibacterial activity against Citrobacter freundii BS-16; inactive
Staphylococcus aureus [20] = assay: Tested for in vitro antibacterial activity against Staphylococcus aureus 753; inactive
Escherichia coli [21] = assay: Tested for in vitro antibacterial activity against Escherichia coli TEM-1; inactive
Proteus vulgaris [22] = assay: Tested for in vitro antibacterial activity against Proteus vulgaris ATCC 6380; inactive
Staphylococcus aureus [23] = assay: Tested for in vitro antibacterial activity against Staphylococcus aureus 67; inactive
Staphylococcus aureus [24] = assay: Tested for in vitro antibacterial activity against Staphylococcus aureus Smith; inactive
Pseudomonas aeruginosa [25] = assay: Tested for in vitro antibacterial activity against Pseudomonas aeruginosa 18SH; inactive
Streptococcus pyogenes [26] = assay: Tested for in vitro antibacterial activity against Streptococcus pyogenes 4; inactive

MIC (Escherichia coli [1]) | MIC (Enterobacter cloacae [2]) | MIC (Streptococcus pneumoniae [3]) | MIC (Pseudomonas aeruginosa [4]) | MIC (Staphylococcus aureus [5]) | MIC (Escherichia coli [6]) | MIC (Citrobacter freundii [7]) | MIC (Klebsiella pneumoniae [8]) | MIC (Pseudomonas aeruginosa [9]) | MIC (Streptococcus pyogenes [10]) | MIC (Staphylococcus aureus [11]) | MIC (Staphylococcus aureus [12]) | MIC (Proteus vulgaris [13]) | SMILES | other results
4 µg/mL | 16 µg/mL | ≤ 0.0156 µg/mL | > 128 µg/mL | 4 µg/mL | 2 µg/mL | 32 µg/mL | 2 µg/mL | 128 µg/mL | ≤ 0.0156 µg/mL | 128 µg/mL | 64 µg/mL | 4 µg/mL | CO/N=C(/C(=O)NC1C(=O)N2C(C(=O)[O-])=C(CSc3nnnn3CC(=O)N3CCN(c4cc5c(cc4F)c(=O)c(C(=O)O)cn5C4CC4)CC3)CS[C@H]12)c1csc(N)n1.[Na+] (stereo partly drawn) | 
2 µg/mL (≈ 4.22 µM) | 2 µg/mL (≈ 4.22 µM) | 64 µg/mL (≈ 135 µM) | 128 µg/mL (≈ 270 µM) | 32 µg/mL (≈ 67.6 µM) | 2 µg/mL (≈ 4.22 µM) | 4 µg/mL (≈ 8.45 µM) | 32 µg/mL (≈ 67.6 µM) | 32 µg/mL (≈ 67.6 µM) | 64 µg/mL (≈ 135 µM) | 64 µg/mL (≈ 135 µM) | 64 µg/mL (≈ 135 µM) | 4 µg/mL (≈ 8.45 µM) | O=C(O)c1cn(C2CC2)c2cc(N3CCN(C(=O)Cn4nnnc4S)CC3)c(F)cc2c1=O | 
0.25 µg/mL | > 128 µg/mL | 0.0625 µg/mL | > 128 µg/mL | 16 µg/mL | 0.25 µg/mL | > 128 µg/mL | 0.0625 µg/mL | > 128 µg/mL | ≤ 0.0157 µg/mL | > 128 µg/mL | > 128 µg/mL | 0.0625 µg/mL | CO/N=C(/C(=O)NC1C(=O)N2C(C(=O)[O-])=C(CO)CS[C@H]12)c1csc(N)n1.[Na+] (stereo partly drawn) | 
0.125 µg/mL | > 128 µg/mL | 0.0313 µg/mL | 16 µg/mL | 8 µg/mL | 0.125 µg/mL | 128 µg/mL | 0.0625 µg/mL | > 128 µg/mL | 0.0313 µg/mL | > 128 µg/mL | > 128 µg/mL | ≤ 0.0156 µg/mL | CO/N=C(/C(=O)NC1C(=O)N2C(C(=O)[O-])=C(CSc3nnnn3CC(=O)O)CS[C@H]12)c1csc(N)n1.[Na+] (stereo partly drawn) | 
 |  |  |  |  |  |  |  |  |  |  |  |  | O=C([O-])Cn1nnnc1[S-].[Na+].[Na+] | MIC (Streptococcus pneumoniae [14]): > 128 µg/mL; MIC (Klebsiella pneumoniae [15]): > 128 µg/mL; MIC (Pseudomonas aeruginosa [16]): > 128 µg/mL; MIC (Escherichia coli [17]): > 128 µg/mL; MIC (Enterobacter cloacae [18]): > 128 µg/mL; MIC (Citrobacter freundii [19]): > 128 µg/mL; MIC (Staphylococcus aureus [20]): > 128 µg/mL; MIC (Escherichia coli [21]): > 128 µg/mL; MIC (Proteus vulgaris [22]): > 128 µg/mL; MIC (Staphylococcus aureus [23]): > 128 µg/mL; MIC (Staphylococcus aureus [24]): > 128 µg/mL; MIC (Pseudomonas aeruginosa [25]): > 128 µg/mL; MIC (Streptococcus pyogenes [26]): > 128 µg/mL

SMILES | MIC (Escherichia coli [1]) | MIC (Enterobacter cloacae [2]) | MIC (Streptococcus pneumoniae [3]) | MIC (Pseudomonas aeruginosa [4]) | MIC (Staphylococcus aureus [5]) | MIC (Escherichia coli [6]) | MIC (Citrobacter freundii [7]) | MIC (Klebsiella pneumoniae [8]) | MIC (Pseudomonas aeruginosa [9]) | MIC (Streptococcus pyogenes [10]) | MIC (Staphylococcus aureus [11]) | MIC (Staphylococcus aureus [12]) | MIC (Proteus vulgaris [13]) | other results
O=C(O)c1cn(C2CC2)c2c(F)c(N3CCNCC3)c(F)cc2c1=O | 0.0078 µg/mL (≈ 0.0223 µM) | 0.0078 µg/mL (≈ 0.0223 µM) | 1 µg/mL (≈ 2.86 µM) | 1 µg/mL (≈ 2.86 µM) | 0.125 µg/mL (≈ 0.358 µM) | 0.0156 µg/mL (≈ 0.0447 µM) | 0.0313 µg/mL (≈ 0.0896 µM) | 0.25 µg/mL (≈ 0.716 µM) | 0.25 µg/mL (≈ 0.716 µM) | 0.5 µg/mL (≈ 1.43 µM) | 0.25 µg/mL (≈ 0.716 µM) | 0.5 µg/mL (≈ 1.43 µM) | 0.0078 µg/mL (≈ 0.0223 µM) | 
